What all share (format): functional, cell-based
Conditions in all cases: Homo sapiens

Test [1] deals with HUVEC. In words: Antiapoptotic activity against HUVEC cells assessed as inhibition of DNA condensation and fragmentation after 48 hrs by DAPI staining.
In test [2] the test system is HUVEC. In words: Antiapoptotic activity against HUVEC cells at 5 ug/ml after 48 hrs by MTT calorimetric assay. On the technique in general: Tetrazolium assays rely on reduction of a dye to a coloured formazan, in cell work by metabolically active cells.
For test [3], the system named is HUVEC. The test is described as follows: Antiapoptotic activity against HUVEC cells at 10 ug/ml after 48 hrs by MTT calorimetric assay.
The subject of test [4] is HUVEC. In words: Antiapoptotic activity against HUVEC cells assessed as inhibition of DNA condensation and fragmentation after 48 hrs by TUNEL assay.
Test [5] concerns HUVEC. In words: Antiapoptotic activity against HUVEC cells at 5 ug/ml after 24 hrs by MTT calorimetric assay.
For test [6], the system named is HUVEC. In words: Antiapoptotic activity against HUVEC cells at 10 ug/ml after 24 hrs by MTT calorimetric assay.
The test system of another test is HREC. In words: Antiapoptotic activity against HREC cells assessed as cell viability after 48 hrs.

The structures appear in SMILES notation. Active and inactive are the calls of the source. The calls are words filed in the database; no cut-off is given here.

For `CC(=O)OC[C@H]1O[C@@H](O[C@H]2CC[C@@]3(C)C(=CC[C@H]4[C@@H]5CC[C@H]([C@H](C)CCCC(C)C)[C@@]5(C)CC[C@@H]43)C2)C=C[C@@H]1OC(C)=O`, the outcome with HUVEC [1], in the test with HUVEC [2], in the test with HUVEC [3], in the test on HUVEC [4], with HUVEC [5] and in the test with HUVEC [6] was Active. Moreover, the result with HREC was Active.

For `CC(C)CCC[C@@H](C)[C@H]1CC[C@H]2[C@@H]3CC=C4C[C@@H](OC/C=C/CO)CC[C@]4(C)[C@H]3CC[C@]12C`, the result in the test with HUVEC [2] and in the test with HUVEC [5] was Active.

In the case of `CC(C)CCC[C@@H](C)[C@H]1CC[C@H]2[C@@H]3CC=C4C[C@@H](O[C@@H]5O[C@H](CO)[C@@H](O)[C@H](O)[C@H]5O)CC[C@]4(C)[C@H]3CC[C@]12C`, the result in the test with HUVEC [2], with HUVEC [3], in the test with HUVEC [5] and with HUVEC [6] was inactive.

Consider `CC(C)CCC[C@@H](C)[C@H]1CC[C@H]2[C@@H]3CC=C4C[C@@H](O[C@H]5CCCCO5)CC[C@]4(C)[C@H]3CC[C@]12C`, for which the result in the test with HUVEC [1], in the test with HUVEC [2], in the test on HUVEC [3], in the test with HUVEC [4], in the test on HUVEC [5] and in the test with HUVEC [6] was Active. For the same compound, the outcome in the test on HREC was Active.

In the case of `CC(C)CCC[C@@H](C)[C@H]1CC[C@H]2[C@@H]3CC=C4C[C@@H](Oc5ccc6ccccc6c5)CC[C@]4(C)[C@H]3CC[C@]12C`, the outcome with HUVEC [2] and with HUVEC [5] was Active.

Turning to `C=CCO[C@H]1CC[C@@]2(C)C(=CC[C@H]3[C@@H]4CC[C@H]([C@H](C)CCCC(C)C)[C@@]4(C)CC[C@@H]32)C1`, the outcome in the test with HUVEC [2] and in the test with HUVEC [5] was Active.

For `COCCOCO[C@H]1CC[C@@]2(C)C(=CC[C@H]3[C@@H]4CC[C@H]([C@H](C)CCCC(C)C)[C@@]4(C)CC[C@@H]32)C1`, the outcome in the test on HUVEC [2] and in the test on HUVEC [5] was Active.

Regarding `CC(C)CCC[C@@H](C)[C@H]1CC[C@H]2[C@@H]3CC=C4C[C@@H](O[C@H]5C=C[C@H](O)[C@@H](CO)O5)CC[C@]4(C)[C@H]3CC[C@]12C`, the result in the test on HUVEC [2], with HUVEC [3], in the test with HUVEC [5] and in the test on HUVEC [6] was inactive.

As to `CC(C)CCC[C@@H](C)[C@H]1CC[C@H]2[C@@H]3CC=C4C[C@@H](O[C@H]5C[C@@H](O)[C@H](O)[C@@H](CO)O5)CC[C@]4(C)[C@H]3CC[C@]12C`, the result with HUVEC [2], with HUVEC [3], in the test on HUVEC [5] and with HUVEC [6] was Active.

With `C=C(CCC=C(C)C)[C@H]1CC[C@]2(C)[C@@H]1[C@H](O)C[C@@H]1[C@@]3(C)CC[C@H](O[C@@H]4O[C@H](CO)[C@@H](O)[C@H](O)[C@H]4O[C@@H]4O[C@H](CO)[C@@H](O)[C@H](O)[C@H]4O)C(C)(C)[C@@H]3CC[C@]12C`, the outcome with HUVEC [2], with HUVEC [3], with HUVEC [5] and with HUVEC [6] was Active.

Regarding `COC[C@H]1O[C@@H](O[C@H]2CC[C@@]3(C)C(=CC[C@H]4[C@@H]5CC[C@H]([C@H](C)CCCC(C)C)[C@@]5(C)CC[C@@H]43)C2)C=C[C@@H]1OC`, the outcome in the test with HUVEC [2], in the test with HUVEC [3], with HUVEC [5] and in the test on HUVEC [6] was Active.

As for `COC[C@H]1O[C@@H](O[C@H]2CC[C@@]3(C)C(=CC[C@H]4[C@@H]5CC[C@H]([C@H](C)CCCC(C)C)[C@@]5(C)CC[C@@H]43)C2)C[C@@H](OC)[C@@H]1OC`, the outcome in the test with HUVEC [2], in the test on HUVEC [3], with HUVEC [5] and in the test on HUVEC [6] was inactive.

The values are drawn from ChEMBL document CHEMBL1287695, “Cholesterol-derived novel anti-apoptotic agents on the structural basis of ginsenoside Rk1” (Bioorg Med Chem Lett, 2010).
